The source of these data is patent publication US20060160095A1, “Survivin” (EiRx Therapeutics Limited, priority 2002, published 2006).

The test system of data set [1] is Survivin mRNA. Put plainly: LifeGrid microarray of Survivin transcripts in neutrophils. Format: cell-based, human. The conditions noted are these: gliotoxin added in the presence of GM-CSF. As for the experimental part:
Primary human neutrophils are isolated and purified from peripheral blood of normal healthy individuals using standard techniques. Neutrophils are resuspended in serum containing culture medium together with GM-CSF (50 U) at a concentration of 2×10^6/ml, and cultured for 0 h (control), 2 h, 4 h and 6 h at 37° C. Total RNA is then prepared from both groups using acid phenol/guanidine isothiocyanate extraction (RNAzol B; Biogenesis), or RNeasy RNA preparation kits (Qiagen). Any contaminating genomic DNA is removed by DNase treatment (DNase I, Gibco-BRL). […]
This example describes the use of a STORM Phosphoimager to quantitatively image positive signals across the filter arrays. […]
The captured image file is then analysed using software such as Array Vision (Imaging Research Inc.; See FIG. 5). […] This program contains facilities for spot detection and quantification, and background detection and quantification. […] As the data is imported to the database, a Normalisation factor is calculated and the sDENs values modified accordingly. […] A normalization factor may be derived from Linear Regression calculated by reference to housekeeping genes. Alternatively, the Global Mean is calculated as the average of the sDens values across all of the arrays to be compared and a normalisation factor is then derived by division of the overall spot density with the Global Mean value. […]

The test system of data set [2] is Primary human neutrophils. Put plainly: MTT survival assay of neutrophils cultured with GM-CSF, with or without gliotoxin. Format: cell-based. Here is the method: Primary human neutrophils are isolated and purified from peripheral blood of normal healthy individuals. Neutrophils are resuspended in serum containing culture medium together with various amounts of GM-CSF at a density of 2×10^6/ml, with 100 μl plated into a 96 well plate and cultured for 18 h at 37° C. After this time 10 μl of MTT (5 mg/ml) is added to the cultures and incubated for a further 4 h at 37° C. before solubilisation of the purple coloured formazan with acidic isopropanol. Optical densities are read at 570 nm using a plate reader.
Primary human neutrophils are isolated and purified from peripheral blood of normal healthy individuals. Neutrophils are resuspended in serum containing culture medium containing 5 U/ml of GM-CSF at a concentration of 2×10^6/ml. […] After the indicated time, 10 μl of MTT (5 mg/ml) are added to the cultures and incubated for a further 4 h at 37° C. before solubilisation of the purple coloured formazan with acidic isopropanol. Optical densities are read at 570 nm using a plate reader.

Data set [3] concerns HL60 cells. Briefly: DNA fragmentation by agarose gel electrophoresis in differentiated HL60 cells. The conditions noted are these: 10 μM Retinoic acid. Format: cell-based. As for the experimental part:
HL60 cells are seeded at 5×10^6cells in T25 flasks and incubated with 10 μM Retinoic acid for 24, 48, 72, 96, 120 and 144 hrs. Mock treated HL-60 cells were used as a control. Cellular DNA was analysed for fragmentation into oligonucleosomal-size fragments and their multiples by agarose gel electrophoresis. Lanes 1,3,5,7,9,11 contain DNA from HL-60 cells that were differentiated with 10 μM Retinoic Acid over the indicated period whereas samples in lanes 2,4,6,8,10,12,14 are from control HL-60 cells treated for the same time period. Lane 15 is a 1 Kb Plus Ladder Molecular Marker.

Data set [4] deals with Neutrophils. Briefly: Neutrophil survival with BAL or GM-CSF after antisense/missense oligonucleotides (Example 7). The conditions noted are these: oligonucleotides 0 to 10 μM. Format: cell-based, human. As for the experimental part: Neutrophils are purified as normal and resuspended in culture medium (RPMI+10% FCS) to give a final conc. of 2×10^6/ml. Five hundred microlitres are added to each well of a 24 well plate, to give a final concentration of 1×10^6/well.
Either antisense or missense oligonucleotides are added directly to each well over a range of concentrations between 0 μM to 10 μM.
Cells are then incubated for time intervals between 15 mins to 8 hours. Bronchoalveolar lavage (BAL) fluid, obtained from patients with chronic inflammation, including cystic fibrosis, chronic obstructive pulmonary disease or healthy controls, is then added to each well. As a positive control for increased survival, neutrophils are treated with GM-CSF (0 to 20 units).
Neutrophil apoptosis is measured as described in Example 1.

As for `CN1C(=O)[C@]23CC4=CC=C[C@H](O)[C@H]4N2C(=O)[C@@]1(CO)SS3` [gliotoxin, Gliotoxin], the “Increased expression of Survivin following GM-CSF treatment” value in data set [1] is “blocked”. Further, in data set [2] (0.1 μg/ml added with 5 U/ml GM-CSF), the “block of the GM-CSF inhibition of neutrophil apoptosis (MTT)” value is recorded as “effectively blocks”. Also, in data set [2] (added alone to isolated neutrophils, no GM-CSF), the “neutrophil apoptosis with the compound alone (MTT)” value is reported as “No increased neutrophil apoptosis”.

Consider `CC1=C(/C=C/C(C)=C/C=C/C(C)=C/C(=O)O)C(C)(C)CCC1` [retinoic acid, Retinoic acid], for which, in data set [3], the “onset of apoptosis after differentiation” value is around 4 days.

Consider “5′-CCCAgCCTTCCAgCTCCTTg-3′ (antisense 5'-CCCAgCCTTCCAgCTCCTTg-3'; as printed in the source, key not given here) [antisense Survivin oligonucleotides]”, for which the “survival of neutrophils treated with BAL” value in data set [4] (BAL derived from patients with chronic inflammation) is “inhibits the survival”. Further, the “survival of neutrophils treated with control cytokine GM-CSF” value in data set [4] (GM-CSF as control cytokine) was “inhibits the survival”.
